Results: patent EP0391462A1, “Synergistic compositions containing ketanserin” (JANSSEN PHARMACEUTICA N.V., priority 1989, dated 1990)

Columns and labels:
[1] = system: patients with moderate, uncomplicated hypertension; details: difference between treated and untreated patients, mean ± standard error; end of treatment period, 1-2 hours after last dose, seated; ketanserin 40 mg b.i.d., captopril 50 mg b.i.d.
Method: The effect of a combination of the compound ketanserin (I) and an ACE inhibitor, captopril, on the lowering of blood pressure was investigated in a double-blind randomized cross-over study according to a latin square design.
Adult (≧18 years) patients with moderate, uncomplicated hypertension (105 mmHg ≦ DBP ≦ 115 mmHg at the end of a 1 month placebo wash-out period) were randomly assigned to: - placebo (1 tab q.i.d.); - placebo (1 tab b.i.d.) + ketanserin (1 tab 40 mg b.i.d.); - placebo (1 tab b.i.d.) + captopril (1 tab 50 mg b.i.d.); - ketanserin (1 tab 40 mg b.i.d.) + captopril (1 tab 50 mg b.i.d.).
At the end of each treatment period (1-2 hours after the last dose), blood pressure (by a mercury sphygmomanometer) and heart rate (by the palpatory method over a 30˝ period) of patients seated for 10′ were recorded by the same investigator during 3 measurements at 2′ intervals.

[2] = system: patients with mild to moderate, uncomplicated, essential hypertension; type: in vivo; details: absolute value, mean ± standard error; end of 3 month monotherapy (ketanserin 2 weeks 20 mg b.i.d. then 10 weeks 40 mg b.i.d., 9 pts; enalapril 12 weeks 10 mg b.i.d., 7 pts)
Method: The effect of a combination of the compound ketanserin (I) and enalapril on the lowering of blood pressure was investigated in a randomized double-blind parallel group study. Elderly (≧ 50 years) patients with mild to moderate, uncomplicated, essential hypertension (95 mm Hg ≦ DBP ≦ 105 mm Hg at the end of a 3 month period on double blind monotherapy) received ketanserin (1 tab 40 mg b.i.d.) + enalapril (1 tab 10 mg b.i.d.). […] Bloodpressure (SBP, DBP) and heart rate (HR) (mean values ± standard error) are in mm Hg and b.p.m.

Structure (SMILES) | difference of diastolic blood pressure (DBP) [1] | difference of systolic blood pressure (SBP) [1] | DBP, End Monotherapy Phase [2] | SBP, End Monotherapy Phase [2]
C[C@H](CS)C(=O)N1CCC[C@H]1C(=O)O [Captopril, captopril] | -8.75±1.3 mmHg | -8.75±1.96 mmHg | – | –
CCOC(=O)[C@H](CCc1ccccc1)N[C@@H](C)C(=O)N1CCC[C@H]1C(=O)O [Enalapril, enalapril] | – | – | 101.42±10.07 mm Hg | 160.0±5.77 mm Hg
O=C(c1ccc(F)cc1)C1CCN(CCn2c(=O)[nH]c3ccccc3c2=O)CC1 [Ketanserin, 3-[2-[4-(4-fluorobenzoyl)-1-piperidinyl]ethyl]-2,4(1H,3H)-quinazolinedione] | -7.92±1.3 mmHg | -8.33±2.33 mmHg | 102.22±5.65 mm Hg | 148.88±13.64 mm Hg
